Tests used:
[1] = molecular target: T1, CCT/TRiC (Saccharomyces cerevisiae); assay: stopped-flow transient kinetics of phosphate release (labelled phosphate-binding protein), burst-phase rates fit to simple binding; assay type: biochemical; details: 25 °C, pH 7.5 Tris-HCl, 10 mM MgCl2, 50 mM KCl, 20% glycerol, 1 mM DTT; both burst phases similar; read-out: ATP affinity (Kd)
T1 construct: gene CCT2; native complex from yeast cells, two back-to-back rings each of eight distinct subunits CCT1-CCT8; CCT2 mutations introduced in the chromosomal gene
Excerpt: stopped-flow transient kinetics of phosphate release (labelled phosphate-binding protein), burst-phase rates fit to simple binding on CCT/TRiC (Saccharomyces cerevisiae) | the ATP affinities corresponding to the two burst phases are similar and found to be

[2] = molecular target: T1, CCT/TRiC (Saccharomyces cerevisiae); assay: stopped-flow transient kinetics of phosphate release (labelled phosphate-binding protein), burst-phase rates fit to conformational selection; assay type: biochemical; details: 25 °C, pH 7.5 Tris-HCl, 10 mM MgCl2, 50 mM KCl, 20% glycerol, 1 mM DTT; stronger of two burst phases; read-out: ATP affinity (Kd)

Kd [1]: ~7 µM
Kd [2]: ~27 µM
SMILES: Nc1ncnc2c1ncn2[C@@H]1O[C@H](COP(=O)(O)OP(=O)(O)OP(=O)(O)O)[C@@H](O)[C@H]1O [ATP]
